Data on 13 compounds can be found in patent publication US12692267B2 (Madera Therapeutics, LLC, priority 2019, dated 2026).

This experiment deals with HCT116 (human colon cancer). Put plainly: Cancer cell viability, CCK-8, HCT116. Format: cell-based. The following applies: Homo sapiens, HCT-116, 48 h, HCT116, 48 hours, CCK-8; read-out: EC50 (uM, HCT116). As for the experimental part:
Cancer cell lines. […] The plate is incubated for 48 hours.
CCK-8 solution is added directly to the cells.
With `N#Cc1cccc(CN2CCc3ncn(Cc4ccc(Br)cc4)c(=O)c3C2)c1` [Example 74, 3-({3-[(4-bromophenyl)methyl]-4-oxo-3H,4H,5H,6H,7H,8H-pyrido[4,3-d]pyrimidin-6-yl}methyl)benzonitrile], the EC50 came out at 0.02 µM.
Next, `CC#Cc1cccc(CN2CCc3ncn(Cc4ccc(Br)cc4)c(=O)c3C2)c1` [Example 78]: 5.2 µM; `Cc1nc2c(c(=O)n1Cc1ccc(Cl)cc1)CN(Cc1cccc(C#N)c1)C2` [Example 69, 3-({3-[(4-chlorophenyl)methyl]-2-methyl-4-oxo-3H,4H,5H,6H,7H-pyrrolo[3,4-d]pyrimidin-6-yl}methyl)benzonitrile]: 0.097 µM.
For the compound `N#Cc1cccc(CN2CCc3c(c(=O)n(Cc4ccc(C(F)(F)F)cc4)c(=O)n3CCCCN)C2)c1` [Example 58, 3-((1-(4-aminobutyl)-2,4-dioxo-3-(4-(trifluoromethyl)benzyl)-1,2,3,4,7,8-hexahydropyrido[4,3-d]pyrimidin-6 (5H)-yl)methyl)benzonitrile], the EC50 stood at 0.23 µM.
Next, `N#Cc1cccc(CN2CCc3ncn(Cc4ccc(C(F)(F)F)cc4)c(=O)c3C2)c1` [Example 75, 3-[(4-oxo-3-{[4-(trifluoromethyl)phenyl]methyl}-3H,4H,5H,6H,7H,8H-pyrido[4,3-d]pyrimidin-6-yl)methyl]benzonitrile]: 0.098 µM; `CC1(C)CN=C2N(Cc3ccc(Cl)cc3)C(=O)C3=C(CCN(Cc4cccc(C#N)c4)C3)N2C1` [Example 70, 3-({9-[(4-chlorophenyl)methyl]-13,13-dimethyl-8-oxo-1,5,9,11-tetraazatricyclo[8.4.0.0^2,7]tetradeca-2 (7), 10-dien-5-yl}methyl)benzonitrile]: 1.4 µM.
In the case of `N#Cc1cccc(CN2CC3=C(C2)N2CCN=C2N(Cc2ccc(Br)cc2)C3=O)c1` [Example 76, 3-({8-[(4-bromophenyl)methyl]-7-oxo-1,4,8,10-tetraazatricyclo[7.3.0.0^2,6}dodeca-2(6),9-dien-4-yl}methyl)benzonitrile] it was 0.003 µM; in that of `Cc1nc2c(c(=O)n1Cc1ccc(Br)cc1)CN(Cc1cccc(C#N)c1)CC2` [Example 72, 3-({3-[(4-bromophenyl)methyl]-2-methyl-4-oxo-3H,4H,5H,6H,7H,8H-pyrido[4,3-d]pyrimidin-6-yl}methyl)benzonitrile], 0.077 µM.
As to `CC#Cc1cccc(CN2CCc3ncn(Cc4ccc(C(F)(F)F)cc4)c(=O)c3C2)c1` [Example 79], the EC50 was 5.7 µM.
Next, `N#Cc1cccc(CN2CCC3=C(C2)C(=O)N(Cc2ccc(Cl)cc2)C2=NCC(F)(F)CN23)c1` [Example 71, 3-({9-[(4-chlorophenyl)methyl]-13,13-difluoro-8-oxo-1,5,9,11-tetraazatricyclo[8.4.0.0^2,7]tetradeca-2 (7), 10-dien-5-yl}methyl)benzonitrile]: 0.244 µM; `Cc1nc2c(c(=O)n1Cc1ccc(C(F)(F)F)cc1)CN(Cc1cccc(C#N)c1)CC2` [Example 73, 3-[(2-methyl-4-oxo-3-{[4-(trifluoromethyl)phenyl]methyl}-3H,4H,5H,6H,7H,8H-pyrido[4,3-d]pyrimidin-6-yl)methyl]benzonitrile]: 0.069 µM.
In the case of `O=C1CCc2ccc(CN3CCC4=C(C3)C(=O)N(Cc3ccc(Cl)cc3)C3=NCCN34)cc21` [Example 64, 7-[(4-chlorophenyl)methyl]-11-[(3-oxo-2,3-dihydro-1H-inden-5-yl)methyl]-2,5,7,11-tetraazatricyclo[7.4.0.0^2,6]trideca-1(9),5-dien-8-one] it was 10.5 µM; in that of `N#Cc1cccc(CN2CC3=C(C2)N2CCN=C2N(Cc2ccc(C(F)(F)F)cc2)C3=O)c1` [Example 77, 3-[(7-oxo-8-{[4-(trifluoromethyl)phenyl]methyl}-1,4,8,10-tetraazatricyclo[7.3.0.0^2,6]dodeca-2 (6),9-dien-4-yl)methyl]benzonitrile], 0.0021 µM.

The term EC50 denotes the concentration that produces a half-maximal response.
